Data published in patent publication US10975080B2, “Compounds and compositions for inhibiting the activity of SHP2” (NOVARTIS AG, priority 2015, dated 2021).

Biological target: SHP2 (Homo sapiens (Human), UniProt Q06124)
Assay: SHP2 Allosteric Inhibition Assay
Type: biochemical
Details: 0.5 nM SHP2 with 0.5 μM peptide IRS1_pY1172(dPEG8)pY1222; surrogate substrate DiFMUP; 25° C.; read-out: SHP2 IC50
Method in brief: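 Phosphatase activity of bis-tyrosyl-phosphopeptide-activated SHP2 was read by prompt fluorescence from DiFMUP turnover. After 30–60 min preincubation at 25 °C, DiFMUP was added for 30 min at 25 °C. IC50s came from control-normalized dose-response fitting.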

Sequence of SHP2 (Q06124 whole entry): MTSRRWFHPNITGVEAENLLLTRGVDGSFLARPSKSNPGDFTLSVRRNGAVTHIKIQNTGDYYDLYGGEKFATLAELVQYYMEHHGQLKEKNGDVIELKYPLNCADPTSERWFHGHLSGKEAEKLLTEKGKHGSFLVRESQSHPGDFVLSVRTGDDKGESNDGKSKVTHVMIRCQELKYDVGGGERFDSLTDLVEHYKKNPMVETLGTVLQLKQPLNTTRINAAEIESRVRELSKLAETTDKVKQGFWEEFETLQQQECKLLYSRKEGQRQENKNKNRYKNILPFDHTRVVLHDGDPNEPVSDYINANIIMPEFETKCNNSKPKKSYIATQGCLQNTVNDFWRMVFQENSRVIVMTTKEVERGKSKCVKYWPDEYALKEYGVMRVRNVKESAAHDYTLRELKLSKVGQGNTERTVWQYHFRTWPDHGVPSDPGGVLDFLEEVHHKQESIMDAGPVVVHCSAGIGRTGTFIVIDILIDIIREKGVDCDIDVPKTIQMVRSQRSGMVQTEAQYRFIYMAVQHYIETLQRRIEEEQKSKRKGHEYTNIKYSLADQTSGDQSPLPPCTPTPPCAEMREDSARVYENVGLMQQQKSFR

Structure (SMILES) | IC50 [nM]
C[C@@H]1OCC2(CCN(c3nc4[nH]nc(-c5cc(N)ncc5Cl)c4c(=O)n3C)CC2)[C@@H]1N [Example 80, 6-((3S,4S)-4-amino-3-methyl-2-oxa-8-azaspiro[4.5]decan-8-yl)-3-(2-amino-5-chloropyridin-4-yl)-5-methyl-1,5-dihydro-4H-pyrazolo[3,4-d]pyrimidin-4-one] | 129
Cn1c(N2CCC(C)(CN)CC2)nc2[nH]nc(Sc3cccc(Cl)c3Cl)c2c1=O [Example 83, 6-(4-(aminomethyl)-4-methylpiperidin-1-yl)-3-((2,3-dichlorophenyl)thio)-5-methyl-1,5-dihydro-4H-pyrazolo[3,4-d]pyrimidin-4-one] | 8
C[C@@H]1OCC2(CCN(c3nc4[nH]nc(Sc5ccnc(N)c5Cl)c4c(=O)n3C)CC2)[C@@H]1N [Example 84, 3-((2-amino-3-chloropyridin-4-yl)thio)-6-((3S,4S)-4-amino-3-methyl-2-oxa-8-azaspiro[4.5]decan-8-yl)-5-methyl-1,5-dihydro-4H-pyrazolo[3,4-d]pyrimidin-4-one] | 27
C[C@@H]1OCC2(CCN(c3cnc4c(-c5ccnc(Cl)c5Cl)n[nH]c4n3)CC2)[C@@H]1N [Example 85, (3S,4S)-8-(3-(2,3-dichloropyridin-4-yl)-1H-pyrazolo[3,4-b]pyrazin-6-yl)-3-methyl-2-oxa-8-azaspiro[4.5]decan-4-amine] | 67
